The experiment addresses T1, Recombinant human LTC4 synthase (Homo sapiens, UniProt Q16873).
T1 construct: made in house; host or cells: Pichia pastoris ('Piccia pastoralis' [sic])
T1 sequence (Q16873 1-150): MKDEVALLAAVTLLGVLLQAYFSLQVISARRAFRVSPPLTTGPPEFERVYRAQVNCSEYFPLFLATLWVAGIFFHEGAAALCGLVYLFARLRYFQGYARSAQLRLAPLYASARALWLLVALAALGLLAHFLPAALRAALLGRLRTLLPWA
Put plainly: In vitro assay Method B: LTC4 synthase, LTA4 to LTC4, HTRF detection. It counts as biochemical. The conditions noted are these: total concentration of title compound 10 μM, read-out: % inh. of LTC4 synthase. As for the experimental part:
In the assay, LTC4 synthase catalyses the reaction where the substrate LTA4 is converted to LTC4. Recombinant human LTC4 synthase is expressed in Piccia pastoralis and the purified enzyme is dissolved in 25 mM Tris-buffer pH 7.8 and stored at −20° C. The assay is performed in phosphate buffered saline (PBS) pH 7.4, supplemented with 5 mM glutathione (GSH). The assay is performed at rt in 384-well plates. Analysis of the formed LTC4 is performed using costume made homogenous time-resolved fluorescence (HTRF) detection (Cisbio).
The following is added chronologically to each well: • 1. 50 μL assay buffer, PBS with 5 mM GSH. • 2. 0.5 μL inhibitor in DMSO. • 3. 2 μl LTC4 synthase in PBS. The total protein concentration in this solution is 0.025 mg/ml. Incubation of the plate at rt for 10 min. • 4. 1-1.5 μL LTA4 (final conc. 2.5 μM). Incubation of the plate at rt for 1 min. 10 μL of the incubation mixture is analysed using HTRF detection.
In the case of `CC(C)Oc1ccc(Oc2ccc3c(c2)c(C(=O)O)c(CC(=O)O)n3-c2ccc(Oc3cccc(Cl)c3)cc2)cc1` [3:2, 2-Carboxymethyl-1-[4-(3-chlorophenoxy)phenyl]-5-(4-isopropoxy-phenoxy)indole-3-carboxylic acid], the inhibition at 10 µM turned out to be 97%.
With `O=C(O)Cc1c(C(=O)O)c2cc(Oc3ccc(OC(F)(F)F)cc3)ccc2n1-c1ccc(NCc2ccc(Cl)nc2)cc1` [Example 6:2, 2-Carboxymethyl-1-{4-[(6-chloro-3-pyridinylmethyl)amino]phenyl}-5-(4-trifluoromethoxyphenoxy)indole-3-carboxylic acid] the figure was 95%; with `CCN(c1ccc(-n2c(CC(=O)O)c(C(=O)O)c3cc(Oc4ccc(OC(F)(F)F)cc4)ccc32)cc1)c1cccc(C)c1` [6:4, 2-Carboxymethyl-1-{4-[ethyl(m-tolyl)amino]phenyl}-5-(4-trifluoromethoxy-phenoxy)indole-3-carboxylic acid], 94%.
For the molecule `O=C(O)Cc1c(C(=O)O)c2cc(Oc3ccc(OC(F)(F)F)cc3)ccc2n1-c1ccc(Nc2cccc3c2CCCC3)cc1` [6:8, 2-Carboxymethyl-1-[4-(5,6,7,8-tetrahydro-1-naphthylamino)phenyl]-5-(4-trifluoromethoxyphenoxy)indole-3-carboxylic acid], the inhibition at 10 µM was 97%.
For `CC(C)Oc1ccc(Oc2ccc3c(c2)c(C(=O)O)c(CC(=O)O)n3-c2ccc(OC3CC4CCC3C4)cc2)cc1` (stereo not drawn) [5:3, 2-Carboxymethyl-5-(4-isopropoxyphenoxy)-1-[4-(2-norbomanyloxy)-phenyl]indole-3-carboxylic acid], the inhibition at 10 µM was found to be 95%.
As to `O=C(O)Cc1c(C(=O)O)c2cc(Oc3ccc(OC(F)(F)F)cc3)ccc2n1-c1ccc(NC2CCCC2)cc1` [6:5, 2-Carboxymethyl-1-(4-cyclopentylaminophenyl)-5-(4-trifluoromethoxy-phenoxy)indole-3-carboxylic acid], the inhibition at 10 µM was 100%.
In the case of `CC(C)Oc1ccc(Oc2ccc3c(c2)c(C(=O)O)c(CC(=O)O)n3-c2ccc(OCc3ccc(Cl)nc3)cc2)cc1` [1:11, 2-Carboxymethyl-1-[4-(6-chloro-3-pyridinylmethoxy)phenyl]-5-(4-isopropoxyphenoxy)indole-3-carboxylic acid], the inhibition at 10 µM was determined as 99%.
Next, `Cc1ccc(COc2ccc(-n3c(CC(=O)O)c(C(=O)O)c4cc(Oc5ccc(OC(C)C)cc5)ccc43)cc2)cc1` [Example 1:2, 2-Carboxymethyl-5-(4-isopropoxyphenoxy)-1-(4-(4-methylbenzyloxy)phenyl)indole-3-carboxylic acid]: 96%; `CC(C)Oc1ccc(Oc2ccc3c(c2)c(C(=O)O)c(CC(=O)O)n3-c2ccc(Oc3ccccc3Cl)cc2)cc1` [3:4, 2-Carboxymethyl-1-[4-(2-chlorophenoxy)phenyl]-5-(4-isopropoxy-phenoxy)indole-3-carboxylic acid]: 9%.
With `O=C(O)Cc1c(C(=O)O)c2cc(Oc3ccc(OC4CCCC4)cc3)ccc2n1-c1ccc(OC2CCCC2)cc1` [4:3, 2-Carboxymethyl-5-(4-cyclopentyloxyphenoxy)-1-(4-cyclopentyloxyphenyl)indole-3-carboxylic acid] the figure was 97%; with `O=C(O)Cc1c(C(=O)O)c2cc(Oc3ccc(OC(F)(F)F)cc3)ccc2n1-c1ccc(NCC2CCCCC2)cc1` [6:6, 2-Carboxymethyl-1-(4-cyclohexylmethylaminophenyl)-5-(4-trifluoro-methoxyphenoxy)indole-3-carboxylic acid], 97%; with `CCN(c1ccccc1)c1ccc(-n2c(CC(=O)O)c(C(=O)O)c3cc(Oc4ccc(OC(F)(F)F)cc4)ccc32)cc1` [6:3, 2-Carboxymethyl-1-{4-[ethyl(phenyl)amino]phenyl}-5-(4-trifluoromethoxy-phenoxy)indole-3-carboxylic acid], 100%.

For the origin of these results see patent US20120029016A1, “Indoles Useful in the Treatment of Inflammation” (BIOLIPOX AB, priority 2008, published 2012).
